Like-named read-outs stand apart in the source and are kept apart here.

This test deals with Enterococcus faecalis type strain NCTC 775. Put plainly: Cell lysis experiments with ILs, released DNA quantified by ENT-qPCR. The test is classed as cell-based.

Regarding `CC(=O)[O-].CCn1cc[n+](C)c1` [[C2mim]OAc, 1-Ethyl-3-methylimidazollum acetate], the “23S rRNA gene copies in 2.5 μl of the DNA extracts” value was around 6.48±0.02. Besides, the “cell lysis efficiency with varying IL concentrations” value (IL from 90% (w/v) to 10% (w/v), same extraction procedure) is on record as “almost steadily decreased with its respective concentration”.
Consider `CCCCCC(=O)[O-].C[N+](C)(C)CCO` [[Cho]Hex, Choline hexanoate], for which the “23S rRNA gene copies in 2.5 μl of the DNA extracts” value is reported as around 6.49±0.11; the “cell lysis efficiency with varying IL concentrations” value is “slightly improved towards a concentration of 50% (w/v), only decreasing with lower concentrations of 30% (w/v) and 10% (w/v)”.

(Values after US20210380930A1, “METHODS, APPARATUS AND KITS FOR BACTERIAL CELL LYSIS” (TECHNISCHE UNIVERSITÄT WIEN, priority 2018, published 2021).)
